Experimental data from PubChem BioAssay AID330 (DTP/NCI, 2004).
Several values for one entry are separate records, joined by “and”; a condition that tells them apart may be missing. Identical values can stand only once. Toxic doses and inconclusive results are not listed.

System: P388 leukemia ip, CD2F1 mice, survival T/C
Test: NCI In Vivo Anticancer Drug Screen. Data for tumor model P388 Leukemia (intraperitoneal) in CD2F1 (CDF1) mice
Conditions: endpoint: median survival time, higher = longer survival
How it was run: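 Mice carrying the transplanted tumor received test compound or vehicle. Survival was recorded in each group, and the value is the treated-group measurement divided by that of the vehicle-treated control group.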

[1] = dose: 50.0 mg/kg/injection, schedule: Q01DX009 (ip), vehicle: saline
[2] = dose: 100.0 mg/kg/injection, schedule: Q01DX009 (ip), vehicle: saline
[3] = dose: 200.0 mg/kg/injection, schedule: Q01DX009 (ip), vehicle: saline
[4] = dose: 100.0 mg/kg/injection, schedule: Q01DX001 (ip), vehicle: saline
[5] = dose: 200.0 mg/kg/injection, schedule: Q01DX001 (ip), vehicle: saline
[6] = dose: 400.0 mg/kg/injection, schedule: Q01DX001 (ip), vehicle: saline
[7] = dose: 50.0 mg/kg/injection, schedule: Q01DX005 (ip), vehicle: saline with Tween-80
[8] = dose: 100.0 mg/kg/injection, schedule: Q01DX005 (ip), vehicle: saline with Tween-80
[9] = dose: 200.0 mg/kg/injection, schedule: Q01DX005 (ip), vehicle: saline with Tween-80
[10] = dose: 60.0 mg/kg/injection, schedule: Q01DX005 (ip), vehicle: Klucel (hydroxypropylcellulose) (HPC)
[11] = dose: 120.0 mg/kg/injection, schedule: Q01DX005 (ip), vehicle: Klucel (hydroxypropylcellulose) (HPC)
[12] = dose: 240.0 mg/kg/injection, schedule: Q01DX005 (ip), vehicle: Klucel (hydroxypropylcellulose) (HPC)

Compound: Nc1ncnc2c1c1c(=S)nc[nH]c1n2C1OC(CO)C(O)C1O (configuration not stated)
- T/C (dose: 25.0 mg/kg/injection, schedule: Q01DX009 (ip), vehicle: water): 158 % of control
- T/C (dose: 50.0 mg/kg/injection, schedule: Q01DX009 (ip), vehicle: water): 165 % of control
- T/C (dose: 100.0 mg/kg/injection, schedule: Q01DX009 (ip), vehicle: water): 177 % of control

Compound: C/C=C1/CN2CCc3c4n(c5ccccc35)[C@H](C(=O)OC)[C@H]1C[C@@H]42
- T/C (dose: 12.5 mg/kg/injection, schedule: Q01DX005 (ip), vehicle: acid diluted with saline): 107 % of control
- T/C (dose: 25.0 mg/kg/injection, schedule: Q01DX005 (ip), vehicle: acid diluted with saline): 94 % of control
- T/C (dose: 50.0 mg/kg/injection, schedule: Q01DX005 (ip), vehicle: acid diluted with saline): 98 % of control
- T/C (dose: 100.0 mg/kg/injection, schedule: Q01DX005 (ip), vehicle: acid diluted with saline): 100 % of control

Compound: CCn1c2ccc(NC(=O)OC(C)C)cc2c2c3[nH]c(=O)c4cccn4c3ccc21
- T/C (dose: 100.0 mg/kg/injection, schedule: Q01DX001 (ip), vehicle: saline with Tween-80): 87 % of control
- T/C (dose: 200.0 mg/kg/injection, schedule: Q01DX001 (ip), vehicle: saline with Tween-80): 87 % of control
- T/C (dose: 400.0 mg/kg/injection, schedule: Q01DX001 (ip), vehicle: saline with Tween-80): 92 % of control

Compound: CC(=O)NCCNC(Cc1ccccc1)C(=O)O (configuration not stated)
- T/C (dose: 25.0 mg/kg/injection, schedule: Q01DX001 (ip), vehicle: Klucel (hydroxypropylcellulose) (HPC)): 108 % of control
- T/C (dose: 50.0 mg/kg/injection, schedule: Q01DX001 (ip), vehicle: Klucel (hydroxypropylcellulose) (HPC)): 101 % of control
- T/C (dose: 100.0 mg/kg/injection, schedule: Q01DX001 (ip), vehicle: Klucel (hydroxypropylcellulose) (HPC)): 100 % of control and 101 % of control

Compound: CCC(C)(C)N=C(Nc1cccnc1)Nc1nccs1
- T/C (dose: 100.0 mg/kg/injection, schedule: Q04DX003 (ip), vehicle: saline with Tween-80): 92 % of control
- T/C (dose: 200.0 mg/kg/injection, schedule: Q04DX003 (ip), vehicle: saline with Tween-80): 94 % of control
- T/C (dose: 400.0 mg/kg/injection, schedule: Q04DX003 (ip), vehicle: saline with Tween-80): 87 % of control

Compound: COC1OC(COS(C)(=O)=O)C(O)C(O)C1OS(C)(=O)=O (configuration not stated)
- T/C [1]: 110 % of control
- T/C [2]: 106 % of control
- T/C [3]: 106 % of control

Compound: CN1CCC2CC(=O)NC1(C)C2(C)C (configuration not stated)
- T/C [4]: 104 % of control
- T/C [5]: 106 % of control
- T/C [6]: 106 % of control

Compound: C/C=C1/CN2C3CC1C1(C(=O)OC)C(OC(C)=O)[C@]4(C[C@H]21)c1cc(OC)ccc1N(C)C34 (some centres not stated)
- T/C (dose: 3.5 mg/kg/injection, schedule: Q01DX005 (ip), vehicle: Klucel (hydroxypropylcellulose) (HPC)): 115 % of control
- T/C (dose: 7.0 mg/kg/injection, schedule: Q01DX005 (ip), vehicle: Klucel (hydroxypropylcellulose) (HPC)): 108 % of control
- T/C (dose: 14.0 mg/kg/injection, schedule: Q01DX005 (ip), vehicle: Klucel (hydroxypropylcellulose) (HPC)): 94 % of control
- T/C (dose: 28.0 mg/kg/injection, schedule: Q01DX005 (ip), vehicle: Klucel (hydroxypropylcellulose) (HPC)): 100 % of control

Compound: O=C(OCc1ccccc1)C(Cc1ccccc1)NC(=O)C(Cc1ccc(O)cc1)N(C(=O)OCc1ccccc1)C(=O)OCc1ccccc1 (configuration not stated)
- T/C [7]: 103 % of control
- T/C [8]: 100 % of control
- T/C [9]: 91 % of control

Compound: CN(C)C1=NC1(C)C
- T/C [1]: 100 % of control
- T/C [2]: 102 % of control
- T/C [3]: 91 % of control

Compound: Cc1cc(=O)[nH]c2c1C(=O)c1c(C)cc(=O)n(C)c1C2=O
- T/C (dose: 0.5 mg/kg/injection, schedule: Q01DX009 (ip), vehicle: DMSO): 99 % of control and 97 % of control
- T/C (dose: 1.0 mg/kg/injection, schedule: Q01DX009 (ip), vehicle: DMSO): 90 % of control
- T/C (dose: 2.0 mg/kg/injection, schedule: Q01DX009 (ip), vehicle: DMSO): 91 % of control
- T/C (dose: 4.0 mg/kg/injection, schedule: Q01DX009 (ip), vehicle: DMSO): 108 % of control

Compound: C/C=C(\C)C(=O)OC1C2C(C)=CC(=O)C(O)C2(C)C2C3(O)OCC24C1OC(=O)C(OC(C)=O)C4C(C)C3O (configuration not stated)
- T/C (dose: 2.5 mg/kg/injection, schedule: Q01DX009 (ip), vehicle: saline): 155 % of control
- T/C (dose: 5.0 mg/kg/injection, schedule: Q01DX009 (ip), vehicle: saline): 163 % of control

Compound: CC(=O)OCN1C(=O)N(COC(C)=O)C(c2ccccc2)(c2ccccc2)C1=O
- T/C [10]: 104 % of control
- T/C [11]: 105 % of control
- T/C [12]: 103 % of control

Compound: CCC(C)(S)CN (configuration not stated)
- T/C [4]: 90 % of control
- T/C [5]: 90 % of control
- T/C [6]: 92 % of control

Compound: COC(=O)CC(O)CCCCCCCCCCCCC(C)C (configuration not stated)
- T/C (dose: 8.75 mg/kg/injection, schedule: Q01DX005 (ip), vehicle: Klucel + Tween-80): 92 % of control
- T/C (dose: 17.5 mg/kg/injection, schedule: Q01DX005 (ip), vehicle: Klucel + Tween-80): 100 % of control
- T/C (dose: 35.0 mg/kg/injection, schedule: Q01DX005 (ip), vehicle: Klucel + Tween-80): 97 % of control

Compound: CC(C)CC(NC(=O)C(N)Cc1ccc(N(CCCl)CCCl)cc1)C(=O)O (configuration not stated)
- T/C (dose: 3.7 mg/kg/injection, schedule: Q04DX003 (ip), vehicle: saline with Tween-80): 155 % of control and 172 % of control
- T/C (dose: 8.4 mg/kg/injection, schedule: Q04DX003 (ip), vehicle: saline with Tween-80): 187 % of control and 203 % of control
- T/C (dose: 12.6 mg/kg/injection, schedule: Q04DX003 (ip), vehicle: saline with Tween-80): 204 % of control and 272 % of control
- T/C (dose: 18.9 mg/kg/injection, schedule: Q04DX003 (ip), vehicle: saline with Tween-80): 108 % of control and 118 % of control
- T/C (dose: 32.0 mg/kg/injection, schedule: Q04DX003 (ip), vehicle: saline with Tween-80): 158 % of control
- T/C (dose: 42.6 mg/kg/injection, schedule: Q04DX003 (ip), vehicle: saline with Tween-80): 179 % of control
- T/C (dose: 64.0 mg/kg/injection, schedule: Q04DX003 (ip), vehicle: saline with Tween-80): 190 % of control and 198 % of control
- T/C (dose: 96.0 mg/kg/injection, schedule: Q04DX003 (ip), vehicle: saline with Tween-80): 243 % of control
- T/C (dose: 128.0 mg/kg/injection, schedule: Q04DX003 (ip), vehicle: saline with Tween-80): 88 % of control

Compound: CC(=O)OC1(C)CC2(CCCCC2)N=N1 (configuration not stated)
- T/C (dose: 12.5 mg/kg/injection, schedule: Q01DX009 (ip), vehicle: other): 100 % of control
- T/C (dose: 25.0 mg/kg/injection, schedule: Q01DX009 (ip), vehicle: other): 113 % of control
- T/C (dose: 50.0 mg/kg/injection, schedule: Q01DX009 (ip), vehicle: other): 98 % of control
- T/C (dose: 100.0 mg/kg/injection, schedule: Q01DX009 (ip), vehicle: other): 111 % of control and 91 % of control
- T/C (dose: 200.0 mg/kg/injection, schedule: Q01DX009 (ip), vehicle: other): 107 % of control
- T/C (dose: 400.0 mg/kg/injection, schedule: Q01DX009 (ip), vehicle: other): 113 % of control

Compound: Nc1ncc2[nH]c(=O)[nH]c2n1
- T/C [7]: 101 % of control
- T/C [8]: 100 % of control
- T/C [9]: 99 % of control

Compound: c1ccc2c(c1)ccc1cccnc12
- T/C [7]: 93 % of control
- T/C [8]: 93 % of control
- T/C [9]: 102 % of control

Compound: C=C(C)C(=O)OCCO (tested in a mixture with another compound)
- T/C (dose: 100.0 mg/kg/injection, schedule: Q01DX009 (ip), vehicle: saline with Tween-80): 100 % of control
- T/C (dose: 200.0 mg/kg/injection, schedule: Q01DX009 (ip), vehicle: saline with Tween-80): 100 % of control
- T/C (dose: 400.0 mg/kg/injection, schedule: Q01DX009 (ip), vehicle: saline with Tween-80): 100 % of control

Compound: c1ccc2c(c1)CCc1cc(CN3CCOCC3)ccc1N2
- T/C [10]: 111 % of control
- T/C [11]: 108 % of control
- T/C [12]: 105 % of control

Compound: O=C1C=CC(=O)c2c1c(O)c1ccccc1c2Cl
- T/C (dose: 6.25 mg/kg/injection, schedule: Q01DX005 (ip), vehicle: saline): 102 % of control
- T/C (dose: 12.5 mg/kg/injection, schedule: Q01DX005 (ip), vehicle: saline): 95 % of control
- T/C (dose: 25.0 mg/kg/injection, schedule: Q01DX005 (ip), vehicle: saline): 93 % of control

Compound: CCOc1ccc(/C=N/NC(=O)C(=O)N/N=C/c2ccc(OCC)c(OCC)c2)cc1OCC
- T/C (dose: 6.25 mg/kg/injection, schedule: Q01DX005 (ip), vehicle: Klucel (hydroxypropylcellulose) (HPC)): 102 % of control and 95 % of control and 96 % of control
- T/C (dose: 50.0 mg/kg/injection, schedule: Q01DX009 (ip), vehicle: Klucel (hydroxypropylcellulose) (HPC)): 90 % of control
- T/C (dose: 200.0 mg/kg/injection, schedule: Q01DX009 (ip), vehicle: Klucel (hydroxypropylcellulose) (HPC)): 92 % of control

Compound: CCCn1c(O)c(C(=O)CC)sc1=S
- T/C [10]: 97 % of control
- T/C [11]: 99 % of control
